These are literature values, as cited in patent US20250332126A1, “TOPICAL COMPOSITION FOR PAIN RELIEF” (JOHNSON & JOHNSON CONSUMER INC., priority 2022, published 2025).

The conditions of the series: at 20° C.

In general, vapor pressure refers to the pressure of vapour in equilibrium with the condensed phase. As to `CC(C)O` [isopropanol], the vapor pressure is 4.40 kPa.
For `CCO` [ethanol], the vapor pressure was 5.95 kPa.
On to `CO` [methanol], for which the vapor pressure was 11.9 kPa.
